How the values were obtained:
Streptococcus salivarius = experiment: IC25 growth inhibition; higher = less potent
How it was run: (§1)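 Under anaerobic conditions, OD578 was read hourly in a plate reader for at least three biological replicates of monocultures grown overnight in mGAM. Each culture started at an OD578 of 0.01 in pre-reduced plates holding twofold drug dilutions and 1% DMSO (or water). IC25 was reported as a tested interval: the lowest concentration where the monotonic median area under the growth curve dropped below the cutoff. That cutoff was 0.75.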

[1] = tested on: Streptococcus parasanguinis; experiment: IC25 growth inhibition; higher = less potent
How it was run: as §1

Bacteroides uniformis = experiment: IC25 growth inhibition; higher = less potent
How it was run: as §1

Coprococcus comes = experiment: IC25 growth inhibition; higher = less potent
How it was run: as §1

[2] = tested on: Clostridium saccharolyticum; experiment: IC25 growth inhibition; higher = less potent
How it was run: as §1

Clostridium perfringens = experiment: IC25 growth inhibition; higher = less potent
How it was run: as §1

[3] = tested on: Yersinia enterocolitica WA-314; experiment: IC25 growth inhibition; higher = less potent
How it was run: as §1

Bacteroides vulgatus = experiment: IC25 growth inhibition; higher = less potent
How it was run: as §1

Ruminococcus gnavus = experiment: IC25 growth inhibition; higher = less potent
How it was run: as §1

Clostridium bolteae = experiment: IC25 growth inhibition; higher = less potent
How it was run: as §1

Clostridium ramosum = experiment: IC25 growth inhibition; higher = less potent
How it was run: as §1

Roseburia intestinalis = experiment: IC25 growth inhibition; higher = less potent
How it was run: as §1

[4] = tested on: Yersinia pseudotuberculosis; experiment: IC25 growth inhibition; higher = less potent
How it was run: as §1

Escherichia coli ED1a = experiment: IC25 growth inhibition; higher = less potent
How it was run: as §1

[5] = tested on: Fusobacterium nucleatum subsp. Nucleatum; experiment: IC25 growth inhibition; higher = less potent
How it was run: as §1

Parabacteroides merdae = experiment: IC25 growth inhibition; higher = less potent
How it was run: as §1

Eubacterium rectale = experiment: IC25 growth inhibition; higher = less potent
How it was run: as §1

Shigella flexneri = experiment: IC25 growth inhibition; higher = less potent
How it was run: as §1

Bacteroides fragilis NT = experiment: IC25 growth inhibition; higher = less potent
How it was run: as §1

[6] = tested on: Bacteroides thetaiotaomicron; experiment: IC25 growth inhibition; higher = less potent
How it was run: as §1

Dorea formicigenerans = experiment: IC25 growth inhibition; higher = less potent
How it was run: as §1

Collinsella aerofaciens = experiment: IC25 growth inhibition; higher = less potent
How it was run: as §1

[7] = tested on: Salmonella enterica typhimurium; experiment: IC25 growth inhibition; higher = less potent
How it was run: as §1

Vibrio cholerae = experiment: IC25 growth inhibition; higher = less potent
How it was run: as §1

[8] = tested on: Com21 synthetic gut community; experiment: community biomass OD578 after 24 h drug treatment relative to untreated (fraction of untreated control); higher = more community growth; conditions: community: Com21 (Com20 + E. coli ED1a)
Experimental: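 Com21 (Com20 plus E. coli ED1a) was treated with drug for 24 h under anaerobic conditions in mGAM. Community OD578 was then measured and normalised to untreated Com21; mean of 3 biological replicates.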

[9] = drug pretreatment concentration 10 µM
[10] = drug pretreatment concentration 20 µM
[11] = drug pretreatment concentration 40 µM
[12] = drug pretreatment concentration 80 µM
[13] = drug pretreatment concentration 160 µM
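Wherever IC25 growth inhibition is given: lowest concentration where monotonic median growth AUC falls below 0.75 of drug-free control.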

| SMILES | IC25 growth inhibition (Streptococcus salivarius) [µM] | IC25 growth inhibition [1] [µM] | IC25 growth inhibition (Bacteroides uniformis) [µM] | IC25 growth inhibition (Coprococcus comes) [µM] | IC25 growth inhibition [2] [µM] | IC25 growth inhibition (Clostridium perfringens) [µM] | IC25 growth inhibition [3] [µM] | IC25 growth inhibition (Bacteroides vulgatus) [µM] | IC25 growth inhibition (Ruminococcus gnavus) [µM] | IC25 growth inhibition (Clostridium bolteae) [µM] | IC25 growth inhibition (Clostridium ramosum) [µM] | IC25 growth inhibition (Roseburia intestinalis) [µM] | IC25 growth inhibition [4] [µM] | IC25 growth inhibition (Escherichia coli ED1a) [µM] | IC25 growth inhibition [5] [µM] | IC25 growth inhibition (Parabacteroides merdae) [µM] | IC25 growth inhibition (Eubacterium rectale) [µM] | IC25 growth inhibition (Shigella flexneri) [µM] | IC25 growth inhibition (Bacteroides fragilis NT) [µM] | IC25 growth inhibition [6] [µM] | IC25 growth inhibition (Dorea formicigenerans) [µM] | IC25 growth inhibition (Collinsella aerofaciens) [µM] | IC25 growth inhibition [7] [µM] | IC25 growth inhibition (Vibrio cholerae) [µM] | community biomass OD578 ([8]; drug pretreatment concentration 5 µM) | community biomass OD578 [8, 9] | community biomass OD578 [8, 10] | community biomass OD578 [8, 11] | community biomass OD578 [8, 12] | community biomass OD578 [8, 13] |
| --- | --- | --- | --- | --- | --- | --- | --- | --- | --- | --- | --- | --- | --- | --- | --- | --- | --- | --- | --- | --- | --- | --- | --- | --- | --- | --- | --- | --- | --- | --- |
| C[C@]12CCC3=C4CCC(=O)C=C4CC[C@H]3[C@@H]1CC[C@@]2(O)CC#N [Dienogest] | > 80 | > 80 | > 80 | > 80 | > 80 | > 80 | > 80 | > 80 | > 80 | > 80 | > 80 | > 80 | > 80 | > 80 | > 80 | > 80 | > 80 | > 80 | > 80 | > 80 | > 80 | > 80 | > 80 | > 80 | 0.994 | 0.987 | 1.01 | 0.995 | 0.975 | – |
| COc1cccc2c1C(=O)c1c(O)c3c(c(O)c1C2=O)C[C@@](O)(C(=O)CO)C[C@@H]3O[C@H]1C[C@H](N)[C@H](O)[C@H](C)O1 [Doxorubicin] | ≤ 10 | ≤ 5 | > 160 | ≤ 40 | ≤ 20 | ≤ 40 | > 160 | > 160 | ≤ 160 | ≤ 20 | ≤ 40 | ≤ 40 | > 160 | > 160 | > 160 | > 160 | ≤ 80 | > 160 | > 160 | > 160 | ≤ 20 | ≤ 10 | > 160 | > 160 | – | 0.978 | 0.949 | 0.918 | 0.881 | 0.907 |
| C[C@H]1c2cccc(O)c2C(=O)C2=C(O)[C@]3(O)C(=O)C(C(N)=O)=C(O)[C@@H](N(C)C)[C@@H]3[C@@H](O)[C@@H]21 [Doxycycline] | ≤ 40 | < 1.25 | < 1.25 | ≤ 40 | < 1.25 | < 1.25 | ≤ 40 | < 1.25 | ≤ 40 | < 1.25 | < 1.25 | < 1.25 | ≤ 40 | < 1.25 | < 1.25 | ≤ 40 | < 1.25 | ≤ 40 | < 1.25 | < 1.25 | < 1.25 | < 1.25 | > 160 | < 1.25 | – | 0.062 | 0.06 | 0.064 | 0.065 | 0.064 |
| CN[C@H](CC(C)C)C(=O)N[C@H]1C(=O)N[C@@H](CC(N)=O)C(=O)N[C@H]2C(=O)N[C@H]3C(=O)N[C@H](C(=O)N[C@H](C(=O)O)c4cc(O)cc(O)c4-c4cc3ccc4O)[C@H](O)c3ccc(c(Cl)c3)Oc3cc2cc(c3O[C@@H]2O[C@H](CO)[C@@H](O)[C@H](O)[C@H]2O[C@H]2C[C@](C)(N)[C@H](O)[C@H](C)O2)Oc2ccc(cc2Cl)[C@H]1O [Vancomycin] | < 1.25 | < 1.25 | ≤ 20 | < 1.25 | < 1.25 | < 1.25 | > 160 | ≤ 2.5 | < 1.25 | < 1.25 | ≤ 2.5 | < 1.25 | > 160 | > 160 | ≤ 160 | ≤ 10 | < 1.25 | > 160 | ≤ 10 | ≤ 40 | < 1.25 | < 1.25 | > 160 | > 160 | – | – | – | – | – | – |

— the supplement of paper PMC12350171
